Assay [1] deals with GDP-bound NRAS wild-type protein (Homo sapiens, UniProt P01111). Description: Binding to NRAS by surface plasmon resonance (SPR), Single Cycle Kinetics. The following applies: KD ratio NRAS/KRAS, SPR.
Assay [2] concerns the target GDP-bound HRAS wild-type protein (Homo sapiens, UniProt P01112). Description: Binding to HRAS by surface plasmon resonance (SPR), Single Cycle Kinetics. Particulars: KD ratio HRAS/KRAS, SPR.

*1 amine or outer side, *2 acyl side, *3 side chain or, on linkers, in order; H or OH if unused. Where a SMILES comes first, the peptide text is derived from it. Bridges are numbered along the chain shown (N, C = ends). [ ]: non-standard residue; d: D form. The star is where a group is joined. hPhe(3-Cl-4-CF3) = N[C@@H](CCc1ccc(C(F)(F)F)c(Cl)c1)C(=O)O; NEtPhe(4-CF3) = CCN[C@@H](Cc1ccc(C(F)(F)F)cc1)C(=O)O; NEtPhe(4-Me) = CCN[C@@H](Cc1ccc(C)cc1)C(=O)O; NMePhe(4-Me) = CN[C@@H](Cc1ccc(C)cc1)C(=O)O; X30 = CCN([C@H](C(=O)[*:2])C1CCCC1)[*:1]; NMeGly(cPent) = CN[C@H](C(=O)O)C1CCCC1; NMeD = CN[C@@H](CC(=O)O)C(=O)O; NMeL = CN[C@@H](CC(C)C)C(=O)O; Morpholide = C1CN(*)CCO1; Ac5c = NC1(C(=O)O)CCCC1; NBuGly = CCCCNCC(=O)O; NPrGly = CCCNCC(=O)O; Sar = CNCC(=O)O

Here are results for 5 compounds from patent publication US20250230193A1, “CYCLIC COMPOUND HAVING SELECTIVE KRAS INHIBITORY EFFECT ON HRAS AND NRAS” (CHUGAI SEIYAKU KABUSHIKI KAISHA, priority 2022, published 2025).

Chain of GDP-bound HRAS wild-type protein (P01112 whole entry): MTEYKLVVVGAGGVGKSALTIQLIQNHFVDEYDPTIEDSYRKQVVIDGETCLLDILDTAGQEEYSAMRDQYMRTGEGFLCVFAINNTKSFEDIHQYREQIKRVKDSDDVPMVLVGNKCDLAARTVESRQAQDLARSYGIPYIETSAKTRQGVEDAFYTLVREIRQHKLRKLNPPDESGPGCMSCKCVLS
Chain of GDP-bound NRAS wild-type protein (P01111 whole entry): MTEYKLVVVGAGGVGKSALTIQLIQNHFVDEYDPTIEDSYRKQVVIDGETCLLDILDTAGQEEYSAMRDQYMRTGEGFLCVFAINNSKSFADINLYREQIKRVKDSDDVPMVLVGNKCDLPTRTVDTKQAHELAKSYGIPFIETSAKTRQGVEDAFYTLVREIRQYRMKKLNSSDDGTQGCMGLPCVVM

Consider `CCCN1CC(=O)N(C)[C@@H](Cc2ccc(C)cc2)C(=O)N(C)CC(=O)N[C@@H](CCc2ccc(C(F)(F)F)c(Cl)c2)C(=O)N2CCC[C@H]2C(=O)NC2(CCCC2)C(=O)N(C)[C@@H](C2CCCC2)C(=O)N(C)[C@H](C(=O)N2CCOCC2)CC(=O)N(C)[C@@H](CC(C)C)C(=O)N[C@@H]([C@@H](C)CC)C(=O)N(C)CC1=O` [PP0020] ([NMeL]I[Sar][NPrGly][NMePhe(4-Me)][Sar][hPhe(3-Cl-4-CF3)]P[Ac5c][NMeGly(cPent)][NMeD]-Morpholide; lactam N-11), for which, in assay [1], the “NRAS/KRAS (ratio of KD for GDP-bound NRAS wild-type to KD for KRAS)” value was “C (A compound having a KD ratio of 0.1 or more and less than 3 is denoted as C)”. For the same compound, the “HRAS/KRAS (ratio of KD for GDP-bound HRAS wild-type to KD for KRAS)” value in assay [2] was “C (A compound having a KD ratio of 0.1 or more and less than 3 is denoted as C)”.

As to `CCCCN1CC(=O)N(C)[C@@H](Cc2ccc(C)cc2)C(=O)N(C)CC(=O)N[C@@H](CCc2ccc(C(F)(F)F)c(Cl)c2)C(=O)N2CCC[C@H]2C(=O)NC2(CCCC2)C(=O)N(C)[C@@H](C2CCCC2)C(=O)N(C)[C@H](C(=O)N2CCOCC2)CC(=O)N(C)[C@@H](CC(C)C)C(=O)N[C@@H]([C@@H](C)CC)C(=O)N(C)CC1=O` [PP0021] ([NMeL]I[Sar][NBuGly][NMePhe(4-Me)][Sar][hPhe(3-Cl-4-CF3)]P[Ac5c][NMeGly(cPent)][NMeD]-Morpholide; lactam N-11), the “NRAS/KRAS (ratio of KD for GDP-bound NRAS wild-type to KD for KRAS)” value in assay [1] is “C (A compound having a KD ratio of 0.1 or more and less than 3 is denoted as C)”. Moreover, the “HRAS/KRAS (ratio of KD for GDP-bound HRAS wild-type to KD for KRAS)” value in assay [2] is “C (A compound having a KD ratio of 0.1 or more and less than 3 is denoted as C)”.

`CC[C@H](C)[C@@H]1NC(=O)[C@H](CC(C)C)N(C)C(=O)C[C@@H](C(=O)N2CCOCC2)N(C)C(=O)[C@H](C2CCCC2)N(C)C(=O)C2(CCCC2)NC(=O)[C@@H]2CCCN2C(=O)[C@H](CCc2ccc(C(F)(F)F)c(Cl)c2)NC(=O)CN(C)C(=O)[C@H](Cc2ccc(C)cc2)N(CC)C(=O)CN(C)C(=O)CN(C)C1=O` [PP0022] ([NMeL]I[Sar][Sar][NEtPhe(4-Me)][Sar][hPhe(3-Cl-4-CF3)]P[Ac5c][NMeGly(cPent)][NMeD]-Morpholide; lactam N-11): the “NRAS/KRAS (ratio of KD for GDP-bound NRAS wild-type to KD for KRAS)” value in assay [1] is “B (a compound having 3 or more and less than 10 is denoted as B)”. Also, the “HRAS/KRAS (ratio of KD for GDP-bound HRAS wild-type to KD for KRAS)” value in assay [2] was “C (A compound having a KD ratio of 0.1 or more and less than 3 is denoted as C)”.

In the case of `CC[C@H](C)[C@@H]1NC(=O)[C@H](CC(C)C)N(C)C(=O)C[C@@H](C(=O)N2CCOCC2)N(C)C(=O)[C@H](C2CCCC2)N(C)C(=O)C2(CCCC2)NC(=O)[C@@H]2CCCN2C(=O)[C@H](CCc2ccc(C(F)(F)F)c(Cl)c2)NC(=O)CN(C)C(=O)[C@H](Cc2ccc(C(F)(F)F)cc2)N(CC)C(=O)CN(C)C(=O)CN(C)C1=O` [PP0023] ([NMeL]I[Sar][Sar][NEtPhe(4-CF3)][Sar][hPhe(3-Cl-4-CF3)]P[Ac5c][NMeGly(cPent)][NMeD]-Morpholide; lactam N-11), the “NRAS/KRAS (ratio of KD for GDP-bound NRAS wild-type to KD for KRAS)” value in assay [1] was “B (a compound having 3 or more and less than 10 is denoted as B)”. In assay [2], the “HRAS/KRAS (ratio of KD for GDP-bound HRAS wild-type to KD for KRAS)” value is “C (A compound having a KD ratio of 0.1 or more and less than 3 is denoted as C)”.

Turning to `CC[C@H](C)[C@@H]1NC(=O)[C@H](CC(C)C)N(C)C(=O)C[C@@H](C(=O)N2CCOCC2)N(C)C(=O)[C@H](C2CCCC2)N(C)C(=O)C2(CCCC2)NC(=O)[C@@H]2CCCN2C(=O)[C@H](CCc2ccc(C(F)(F)F)c(Cl)c2)NC(=O)CN(C)C(=O)[C@H](C2CCCC2)N(CC)C(=O)CN(C)C(=O)CN(C)C1=O` [PP0024] ([NMeL]I[Sar][Sar][X30][Sar][hPhe(3-Cl-4-CF3)]P[Ac5c][NMeGly(cPent)][NMeD]-Morpholide; lactam N-11), in assay [1], the “NRAS/KRAS (ratio of KD for GDP-bound NRAS wild-type to KD for KRAS)” value is “B (a compound having 3 or more and less than 10 is denoted as B)”. In addition, in assay [2], the “HRAS/KRAS (ratio of KD for GDP-bound HRAS wild-type to KD for KRAS)” value is “C (A compound having a KD ratio of 0.1 or more and less than 3 is denoted as C)”.
